Here are results for seven compounds from patent publication US20200276181A1, “THIENOISOQUINOLINES AND THEIR DERIVATIVES FOR TARGETING TUBULIN, CH-TOG, AURORA A KINASE, TPX2, CDK5RAP2 AND/OR ASPM” (VALORBEC, SEC, priority 2017, published 2020).

Experiment [1] concerns HeLa cells in metaphase. In words: Short treatment and washout, spindle recovery. As to conditions: 5 minutes treatment, washout, imaged after 40 minutes. The format is cell-based, human. From the text: For each condition, 20,000 cells were counted per replicate (N=3). Line graphs (right) were made to better illustrate the relative changes in the cell cycle phases for the different treatments. Bars show standard deviation. The asterisks indicate the first statistically significant change in the G0/G1 and G2/M populations determined by a two-way ANOVA with a post-hoc Tukey's multiple comparisons test using 95% confidence intervals. FIG. 2B) is a line graph showing the percentage of HCT116 (p53−/−) cells, A549 cells, HeLa cells and H1299 cells in mitosis after treatment with various concentrations of C75 for one population doubling time. All of the cell lines show an increase in the proportion of mitotic cells after treatment with 200 nM C75. The bars indicate standard deviation. […]
C75 was also tested for efficacy in different cancer cell lines. […] To further assess the role of C75 in disrupting spindles, HeLa cells were treated with 300 nM C75 for 4 hours and the spindle phenotypes were analyzed in more detail (FIG. 2E). […] To assess the affect of C75 on centrosomes, HeLa cells were treated with C75 or nocodazole (a drug that causes microtubule depolymerization as a control) for a short period of time (5 minutes), then the drugs were removed and the cells were analyzed for spindle phenotypes (schematic in FIG. 2G). […]

The target of experiment [2] is Purified free alpha and beta tubulin dimers (Homo sapiens, UniProt P07437+Q71U36). As to conditions: comparison drugs; cited from earlier work.
The test system of experiment [3] is HeLa cells with lower levels of endogenous MCAK (MCAK RNAi). In words: Spindle phenotypes with MCAK RNAi. Format: cell-based, human. As to conditions: 300 nM C75 or 30 nM colchicine. From the text:
FIG. 8B) is a bar graph showing the proportion of spindle phenotypes in HeLa cells treated as in 8A).
Since this is unique to C75, and ch-TOG RNAi was previously shown to be suppressed (partially) by MCAK RNAi, supporting C75's role in targeting ch-TOG or a component of the pathway.

In experiment [4] the test system is HeLa cells with lower levels of endogenous ch-TOG (ch-TOG RNAi). Nature of the experiment: Spindle phenotypes with ch-TOG RNAi. The format is cell-based, human. As to conditions: 200 nM C75 or 20 nM colchicine. From the text: FIG. 7B) is a bar graph showing the proportion of phenotypes of the HeLa cells observed in the different conditions listed in 7A) (bipolar spindles in light grey; bipolar spindles with misaligned chromosomes in dark grey; multipolar/fragmented spindles in hatched lines; monopolar spindles in black).

Experiment [5] relates to HFF-1 cells. In words: Viability IC50, high-throughput automated analysis (Table 4). As to conditions: Homo sapiens, 3 population doubling times. The format is cell-based. As for the experimental part: (§1) FIG. 1A) is a line graph showing changes in the percentage of viable HFF-1, HeLa, A549 and HCT 116 cells after treatment with a range of C75 concentrations for 3 population doubling times (N=3). […] There were more rounded mitotic cells after C75 treatment in comparison to the control. FIG. 1C) is a line graph showing the percentage of HeLa and HFF1 cells in mitosis after treatment with various concentrations of C75 for 8 hours. The bars indicate standard deviation. FIG. 1D) is a series of images showing cells that were fixed and co-stained for tubulin (microtubules) and DAPI (DNA). Treatment of HeLa cells with 300 nM C75 caused the mitotic spindles to be disorganized, while they were not affected in HFF1 cells. […] The scale bar for the cells is 10 μm. […] FIG. 1F) is a cartoon schematic showing the key features of a metaphase cell.
(§2) The images in FIG. 1B) show fields of view of HeLa cells treated with (dimethyl sulfoxide) DMSO or 500 nM of C75. […] Higher concentrations of C75 caused spindle phenotypes in HFF1 cells, but they were quite different in comparison to HeLa cells (FIG. 1D).

Experiment [6] concerns HCT 116 cells. The experiment is described as above. Format: cell-based. The conditions noted are these: Homo sapiens, 3 population doubling times. As to the method:
as §1, §2

In experiment [7] the test system is A549 cells. The experiment is described as above. Format: cell-based. As to conditions: Homo sapiens, 3 population doubling times. As for the experimental part: as §1, §2
Experiment [8] deals with HeLa cells. The experiment is described as above. The format is cell-based. As to conditions: Homo sapiens, 3 population doubling times. As for the experimental part: as §1, §2
The test system of experiment [9] is A549 cells. Nature of the experiment: IC50 of derivatives (Table 5). Format: cell-based, human. The conditions noted are these: Table 5, cell line only named in b213 (A549).
The subject of experiment [10] is MCF7, BT549, A549, HCT116, HeLa cells. Nature of the experiment: Viability in cancer vs non-cancer cell lines, summary of Table 3. Format: cell-based, human. As to the method:
(§3) To date, 30 variants with different structural modifications have been made. […] In particular, it is shown that C75 causes death in multiple cancer cells with IC50 values in the 100-400 nM range, including breast cancers (MCF7, BT549), lung cancer (A549), colorectal cancer (HCT116) in addition to HeLa cells (cervical cancer).

In experiment [11] the test system is HeLa (cervical adenocarcinoma) cells. Nature of the experiment: Cell viability IC50 (Table 3). Format: cell-based, human. As to the method:
as §3

Experiment [12] relates to MCF-7 (mammary gland carcinoma) cells. Nature of the experiment: Cell viability IC50 (Table 3). The format is cell-based, human. As to conditions: MCF-7 cells. As for the experimental part: as §3
For experiment [13], the system named is BT549 (breast ductal carcinoma) cells. Nature of the experiment: Cell viability IC50 (Table 3). Format: cell-based, human. As for the experimental part: as §3
The test system of experiment [14] is HFF1 (fibroblast) non-cancer cells. In words: Cell viability IC50 (Table 3). The format is cell-based. The conditions noted are these: HFF-1 non-cancer cells. As for the experimental part:
as §3

Experiment [15] addresses Aurora A kinase (Homo sapiens, UniProt O14965). The conditions noted are these: in vitro; cited from earlier work.
Experiment [16] relates to A549 cells. Nature of the experiment: Spindle morphology, DAPI and tubulin staining. Format: cell-based, human. As to conditions: 300 nM, 4 hours. As for the experimental part: FIG. 1A) is a line graph showing changes in the percentage of viable HFF-1, HeLa, A549 and HCT 116 cells after treatment with a range of C75 concentrations for 3 population doubling times (N=3). […] FIG. 1C) is a line graph showing the percentage of HeLa and HFF1 cells in mitosis after treatment with various concentrations of C75 for 8 hours. The bars indicate standard deviation. FIG. 1D) is a series of images showing cells that were fixed and co-stained for tubulin (microtubules) and DAPI (DNA). […] The scale bar for the cells is 10 μm. […] FIG. 1F) is a cartoon schematic showing the key features of a metaphase cell.

Bounds are passed on as bounds.

Sequence of Aurora A kinase (O14965 whole entry): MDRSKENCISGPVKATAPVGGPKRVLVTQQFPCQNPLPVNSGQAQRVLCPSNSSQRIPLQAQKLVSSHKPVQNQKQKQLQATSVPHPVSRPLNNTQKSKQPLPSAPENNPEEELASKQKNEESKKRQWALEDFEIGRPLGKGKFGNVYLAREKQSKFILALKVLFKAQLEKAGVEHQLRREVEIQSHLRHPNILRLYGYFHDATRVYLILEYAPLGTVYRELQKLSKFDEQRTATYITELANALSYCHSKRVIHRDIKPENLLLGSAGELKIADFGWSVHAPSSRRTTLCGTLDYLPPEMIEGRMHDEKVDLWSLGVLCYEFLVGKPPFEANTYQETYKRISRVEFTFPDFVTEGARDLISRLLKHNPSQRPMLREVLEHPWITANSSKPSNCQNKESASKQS

As to `COC(=O)Nc1nc2ccc(C(=O)c3cccs3)cc2[nH]1` [nocodazole, reference compound], in experiment [1], the “spindles reformed after drug removal” value is reported as “bipolar spindles reformed”.
With `CC[C@]1(O)C[C@@H]2CN(CCc3c([nH]c4ccccc34)[C@@](C(=O)OC)(c3cc4c(cc3OC)N(C)[C@H]3[C@@](O)(C(=O)OC)[C@H](OC(C)=O)[C@]5(CC)C=CCN6CC[C@]43[C@@H]65)C2)C1` [vinblastine], the “concentration causing a similar decrease of polymerization” value in experiment [2] was about 5 µM.
Turning to `COc1cc2c(c(OC)c1OC)-c1ccc(OC)c(=O)cc1[C@@H](NC(C)=O)CC2` [colchicine, reference compound], the “suppression of fragmented spindle phenotype by MCAK RNAi” value in experiment [3] is “not”. In addition, the “interaction with ch-TOG RNAi, fragmented spindle phenotype” value in experiment [4] is reported as “synergistic”.
Turning to `O=S(=O)(c1cccs1)N1Cc2ccccc2-c2sccc21` [Compound C87], the half-maximal inhibitory concentration (IC50) in [5], in [6], in experiment [7], in experiment [8] and in [9] (Homo sapiens) was over 1000 nM throughout.
Consider `COc1ccc(S(=O)(=O)N2Cc3ccccc3-c3sc(I)cc32)cc1` [Compound C207], for which the “efficacy (effect on viability) in cancer cells vs. non-cancer cells” value in experiment [10] is on record as “higher efficacy”. Besides, the IC50 is 70 nM in [11]; 86 nM in [12]; 178 nM in experiment [13]; 150 nM in [14]; 433 nM in experiment [9].
Take `COc1ccc(S(=O)(=O)N2Cc3ccccc3-c3sccc32)cc1` [Compound C90]: the 50% inhibitory concentration (IC50) amounted to 177 nM in [11], 149 nM in experiment [12] and 781 nM in [9].
In the case of `COc1cc(Nc2ncc3c(n2)-c2ccc(Cl)cc2C(c2c(F)cccc2OC)=NC3)ccc1C(=O)O` [Alisertib, reference compound], in experiment [15], the “affinity for Aurora A kinase” value was about 1 nM. In addition, the spindle phenotype entry in experiment [16] was “mitotic arrest and spindle phenotypes similar to what was observed for C75”.

As a reminder, the IC50 is the concentration that inhibits the measured activity by half. A high value points to weaker potency.
